Test results taken from the COVID Moonshot data (paper PMC11187573), “Identification of SARS-CoV-2 Mpro inhibitors through deep reinforcement learning for de novo drug design and computational chemistry approaches” (RSC Medicinal Chemistry, 2024).

Experiments:
[1] = biological target: SARS-CoV-2 Main Protease (SARS-CoV-2) (UniProt P0DTD1)
Description: Briefly, compounds were seeded into assay-ready plates (Greiner 384PP, cat# 781280) using an ECHO 650T dispenser and DMSO was back-filled for a uniform concentration in assay plates (DMSO concentration < 1%, final volume = 500 nL.). […] After a quick centrifugation step (1000 rpm, 15 s) the plate is incubated for 15 min at room temperature. […] After centrifugation (1000 rpm, 14 s) the reaction is incubated for 10 min (11-mer) or 5 min (37-mer) at room temperature before quenching with 10 % formic acid. The reactions are analysed with MS using RapidFire (RF) 365 high-throughput sampling robot (Agilent) connected to an iFunnel Agilent 6550 accurate mass quadrupole time-of-flight (Q-TOF) mass spectrometer using electrospray. […] Dose response curves uses an 11-point range of 100--0.0017 µM inhibitor concentrations. RapidFire integrator software (Agilent) was used to extract the charged states from the total ion chromatogram data followed by peak integration. For the 11-mer peptide the m/z (+1) charge states of both the substrate (1191.67 Da) and cleaved N-terminal product TSAVLQ (617.34 Da) were used and the 37-mer peptide the m/z (+2) charge states of the substrate (3960.94 Da) and m/z (+1) of the cleaved C-terminal product [sequence] (1125.57 Da). Percentage conversion (product peak integral / (product peak integral + substrate peak integral))*100) and percentage inhibitions were calculated and normalised against DMSO control with deduction of any background signal in Microsoft Excel. IC50s were calculated using Levenberg–Marquardt algorithm used to fit a restrained Hill equation to the dose-response data with both GraphPad PRISM and CDD.

[2] = biological target: SARS-CoV-2 Main Protease (SARS-CoV-2) (UniProt P0DTD1); remark: listed apart in the source

## COc1ccc(-c2cccc(S(=O)(=O)N3CCN(C(C)=O)CC3)c2)cc1
[1]; 50.0 µM
  inhibition: 0%
other
  relative solubility at 20 uM: 0.95
  relative solubility at 100 uM: 0.93
[2]; 20.0 µM
  inhibition: -3.55%
[2]; 50.0 µM
  inhibition: 2.93%

## CN1CCC(C(=O)NC2CCCCC2NC(=O)C2CCCCC2)CC1 (stereo not drawn)
[1]; 20.0 µM
  inhibition: 0%
other
  relative solubility at 20 uM: 1
  relative solubility at 100 uM: 1.01
[2]; 20.0 µM
  inhibition: -19.4%
[2]; 50.0 µM
  inhibition: -19.4%

## CN1CCC(C(=O)NC2CCCCC2NC(=O)c2ccccc2)CC1 (stereo not drawn)
[1]; 20.0 µM
  inhibition: 0%
[1]; 50.0 µM
  inhibition: 0%
other
  relative solubility at 20 uM: 0.98
  relative solubility at 100 uM: 0.99
[2]; 50.0 µM
  inhibition: -15.4%

## CC(NC(=O)C(Cc1ccccc1)NC(=O)c1ccco1)c1ncco1 (stereo not drawn)
[1]; 20.0 µM
  inhibition: 0%
[1]; 50.0 µM
  inhibition: 0%
other
  relative solubility at 20 uM: 1
  relative solubility at 100 uM: 1
[2]; 50.0 µM
  inhibition: -28%

## C=CC(=O)N(c1ccc(C2(C)CC2)cc1)C(C(=O)NC(C)(C)C)c1cccnc1 (stereo not drawn)
[1]; 20.0 µM
  inhibition: 0%
[1]; 50.0 µM
  inhibition: 10.1%
other
  relative solubility at 20 uM: 1
  relative solubility at 100 uM: 1
[2]; 50.0 µM
  inhibition: -13.5%

## CCO[C@@H]1C[C@H]1C(=O)Nc1cnccc1C (stereo in doubt)
[1]; 50.0 µM
  inhibition: 0%
other
  relative solubility at 20 uM: 1
  relative solubility at 100 uM: 1
[2]; 20.0 µM
  inhibition: -4.13%
[2]; 50.0 µM
  inhibition: -3.45%

## C[C@H]1CN(Cc2ccccc2)CC[C@@H]1NC(=O)C(=O)NCc1ccccc1CN1CCCC[C@@H]1C (stereo in doubt)
[1]; 50.0 µM
  inhibition: 0%
other
  relative solubility at 20 uM: 1
  relative solubility at 100 uM: 0.99
[2]; 20.0 µM
  inhibition: -2.35%
[2]; 50.0 µM
  inhibition: 1.34%

## Cc1nnc(CC(=O)Nc2cccnc2)s1
[1]; 20.0 µM
  inhibition: -1.82%
[1]; 50.0 µM
  inhibition: 0%
other
  relative solubility at 20 uM: 1
  relative solubility at 100 uM: 0.99
[2]; 20.0 µM
  inhibition: -1.16%
[2]; 50.0 µM
  inhibition: -0.0294%

## CN(C(=O)Cc1noc2ccccc12)c1ccc(NC(=O)OC(C)(C)C)cc1
[1]; 20.0 µM
  inhibition: 0%
other
  relative solubility at 20 uM: 0.98
  relative solubility at 100 uM: 0.7
[2]; 20.0 µM
  inhibition: -14.5%
[2]; 50.0 µM
  inhibition: -11.9%

## O=C1/C(=C/c2ccc(O)cc2)c2ccccc2C(=O)N1Cc1ccc2c(c1)OCO2
[1]; 50.0 µM
  inhibition: 20.1%
other
  relative solubility at 20 uM: 0.62
  relative solubility at 100 uM: 0.48
[2]; 20.0 µM
  inhibition: 6.21%
[2]; 50.0 µM
  inhibition: -3.72%

## CCOC(=O)[C@H]1O[C@@H]1C(=O)N[C@@H](CC(C)C)C(=O)NCCC(C)C (stereo in doubt)
[1]; 50.0 µM
  inhibition: 0%
other
  relative solubility at 20 uM: 1
  relative solubility at 100 uM: 1
[2]; 20.0 µM
  inhibition: -1.54%
[2]; 50.0 µM
  inhibition: -5.21%

## CS(=O)(=O)NCCc1ccccc1O
[1]; 20.0 µM
  inhibition: 0%
[1]; 50.0 µM
  inhibition: 0%
other
  relative solubility at 20 uM: 1
  relative solubility at 100 uM: 1
[2]; 50.0 µM
  inhibition: 14.4%

## Cc1ccncc1NC(=O)CCc1nc2cc(Cl)ccc2o1
[1]; 50.0 µM
  inhibition: 0%
other
  relative solubility at 20 uM: 0.99
  relative solubility at 100 uM: 1
[2]; 20.0 µM
  inhibition: 10.4%
[2]; 50.0 µM
  inhibition: 13.1%

## N#Cc1cc(CN2CCN(C(=O)CCl)CC2)c2ccccc2c1
[1]
  IC50: 1160 nM
[1]; 20.0 µM
  inhibition: 97.6%
other
  relative solubility at 20 uM: 0.85
  relative solubility at 100 uM: 0.79
[2]; 20.0 µM
  inhibition: 83.6%
[2]; 50.0 µM
  inhibition: 93.1%

## COc1ccncc1NC(=O)C(C)(C)c1cc(F)cc(C#N)c1
[1]; 50.0 µM
  inhibition: 40.6%
other
  relative solubility at 20 uM: 0.99
  relative solubility at 100 uM: 1
[2]; 20.0 µM
  inhibition: 20%
[2]; 50.0 µM
  inhibition: 30.8%

## COc1ccc(C2CC(c3ccccc3)=NN2C(=O)CCl)cc1OC (stereo not drawn)
[1]
  IC50: 421 nM
[1]; 50.0 µM
  inhibition: 100%
other
  relative solubility at 20 uM: 0.99
  relative solubility at 100 uM: 0.85
[2]; 20.0 µM
  inhibition: 100%
[2]; 50.0 µM
  inhibition: 99.6%

## C=CC(=O)N(c1ccc(C(C)(C)CC)cc1)C(C(=O)Nc1cccc(F)c1C)c1cccnc1 (stereo not drawn)
[1]; 20.0 µM
  inhibition: 3.79%
other
  relative solubility at 20 uM: 0.86
  relative solubility at 100 uM: 0.72
[2]; 20.0 µM
  inhibition: 16.3%
[2]; 50.0 µM
  inhibition: 31.8%

## O=C(CC1(c2ccccc2)CCCC1)Nc1cccnc1
[1]; 20.0 µM
  inhibition: 0%
[1]; 50.0 µM
  inhibition: 13.9%
other
  relative solubility at 20 uM: 1
  relative solubility at 100 uM: 1
[2]; 50.0 µM
  inhibition: 3.98%

## C=CC(=O)N(c1ccc(C(C)(C)C)cc1)C(C(=O)Nc1ccc(F)cc1)c1cccnc1 (stereo not drawn)
[1]; 20.0 µM
  inhibition: 8.55%
[1]; 50.0 µM
  inhibition: 31.9%
other
  relative solubility at 20 uM: 0.98
  relative solubility at 100 uM: 0.86
[2]; 20.0 µM
  inhibition: 17%
[2]; 50.0 µM
  inhibition: 36%

## CC(C)NC1CCN(c2ccc(S(N)(=O)=O)cc2)CC1
[1]; 20.0 µM
  inhibition: 0.29%
[1]; 50.0 µM
  inhibition: 0.505%
other
  relative solubility at 20 uM: 1
  relative solubility at 100 uM: 0.98
[2]; 20.0 µM
  inhibition: -1.27%
[2]; 50.0 µM
  inhibition: -1.56%

## Cc1ccncc1NC(=O)CCc1ccccn1
[1]; 50.0 µM
  inhibition: 11.4%
other
  relative solubility at 20 uM: 1
  relative solubility at 100 uM: 1
[2]; 20.0 µM
  inhibition: -0.904%
[2]; 50.0 µM
  inhibition: -28.6%

## CCC(=O)NCC[C@@H]1CCc2ccc3c(c21)CCO3 (stereo in doubt)
[1]; 20.0 µM
  inhibition: 0%
other
  relative solubility at 20 uM: 1
  relative solubility at 100 uM: 1
[2]; 20.0 µM
  inhibition: 0.473%
[2]; 50.0 µM
  inhibition: 6.69%

## Cc1ccccc1CNc1ccccc1NC(=O)C(O)c1cccnc1 (stereo not drawn)
[1]; 20.0 µM
  inhibition: 4.59%
[1]; 50.0 µM
  inhibition: 35.7%
other
  relative solubility at 20 uM: 0.95
  relative solubility at 100 uM: 0.94
[2]; 20.0 µM
  inhibition: -0.056%
[2]; 50.0 µM
  inhibition: 7.28%

## Cc1ccccc1CN1CCN(C(=O)C(F)C(C)C)CC1 (stereo not drawn)
[1]; 20.0 µM
  inhibition: 0%
[1]; 50.0 µM
  inhibition: 10.3%
other
  relative solubility at 20 uM: 1
  relative solubility at 100 uM: 1
[2]; 20.0 µM
  inhibition: 2.74%
[2]; 50.0 µM
  inhibition: 6.7%

## CCC(NC(=O)C(C)n1cncn1)c1ccccc1OCC(=O)N1CCCC1 (stereo not drawn)
[1]; 20.0 µM
  inhibition: 0%
[1]; 50.0 µM
  inhibition: 0%
other
  relative solubility at 20 uM: 1
  relative solubility at 100 uM: 0.99
[2]; 20.0 µM
  inhibition: -0.907%
[2]; 50.0 µM
  inhibition: 0.701%

## O=C(Cc1c[nH]c2ncccc12)NCc1cccc(Cl)c1
[1]; 20.0 µM
  inhibition: 1.98%
other
  relative solubility at 20 uM: 1
  relative solubility at 100 uM: 0.96
[2]; 20.0 µM
  inhibition: 7.73%
[2]; 50.0 µM
  inhibition: 9.03%

## C=CC(=O)N(c1ccc(S(F)(F)(F)(F)F)cc1)C(C(=O)Nc1c(C)cccc1CC)c1cccnc1 (stereo not drawn)
[1]; 20.0 µM
  inhibition: 4.69%
other
  relative solubility at 20 uM: 0.85
  relative solubility at 100 uM: 0.73
[2]; 20.0 µM
  inhibition: 3.13%
[2]; 50.0 µM
  inhibition: 7.07%
